Reference: US9757402B2, “Method for measuring cell-to-cell transmission of α-synuclein aggregates using bimolecular fluorescence complementation system and method for screening a substance for preventing or treating neurodegenerative disease using the same” (KONKUK UNIVERSITY INDUSTRIAL COOPERATION CORP, priority 2014, dated 2017)

Tests used:
Format in all cases: in vivo, Caenorhabditis elegans
[1] = system: V1S+SV2 and daf-16(mu86); V1S+SV2 animals; assay: BiFC-positive inclusion body formation / aggregate transmission in C. elegans BiFC model with GlcNAc treatment
Description: Pmyo-2::V1S and Pflp-21::SV2-ICR-DsRed plasmids were co-injected into the gonads of late L4-stage N2 worms with a selection marker, pRF4 which expresses a mutant collagen gene, rol-6(su1006) (Mello, C. C., et al. 1991. Efficient gene transfer in C. elegans: extrachromosomal maintenance and integration of transforming sequences. The EMBO J 10, 3959-3970), to prepare double transgenic line expressing the BiFC pair. As a negative control for BiFC, Pmyo-2::V1S alone was injected into N2 worms with pRF4, and Pflp-21::SV2-ICR-DsRed alone was injected into unc-119(ed3) mutant worms with a selection marker, pCFJ151, which expresses unc-119(+) gene (Frokjaer-Jensen, et al. 2008. Single-copy insertion of transgenes in Caenorhabditis elegans. Nat. Genet 40, 1375-1383). The plasmid Pmyo-2::V1 was prepared to express the BiFC partial sequence only by introducing the stop codon right before the α-synuclein coding sequence in Pmyo-2::V1S and was prepared using a QuickChange Site-Directed Mutagenesis Kit (Stratagene, La Jolla, Calif.). Pmyo-2::V1 and Pflp-21::SV2-ICR-DsRed plasmids were then co-injected into N2 with pRF4. In addition, Pflp-21::DsRed was injected into N2 with pRF4 as a control for the effects of general protein overexpression in neurons. For chromosomal integration of the introduced plasmids, injected lines were exposed to UV irradiation. […]

[2] = system: V1S+SV2 and daf-16(mu86); V1S+SV2 animals; assay: Nerve degeneration in C. elegans BiFC model with GlcNAc treatment; conditions: 10 mM GlcNAc, both V1S+SV2 and daf-16(mu86)
Description: Worms were immobilized with 10 mM sodium azide in M9 buffer, mounted on 2% agar pads, and covered with a coverslip. Images of the worms were acquired using Olympus FV1000 confocal laser scanning microscopy (Olympus, Tokyo, Japan). N-acetylglucosamine (GlcNAc) (Sigma) was dissolved in distilled water to prepare 1 M as stock solution. The stock solution was diluted with LB liquid medium. The L4-stage worms of each transgenic line were transferred to NGM plates containing a final concentration of 10 mM GlcNAc. The present inventors then examined the degeneration of axonal processes from the URA motor neuron (Rogers et al., 2003). These nerves were intact in the wild-type N2 at day 8. Expression of SV2 in neurons caused neuritic bleb formation and nerve fragmentation in a small number of worms (FIGS. 23g, 23h, 23i, 23j, and 23k), indicating autonomous cellular toxicity of α-synuclein in neurons. These degenerative phenotypes were further exacerbated when […] was expressed in the pharyngeal muscle, and approximately 15% of nerves were completely lost (FIG. 23k). To verify nerve fragmentation, 3-D reconstruction of the stacked images of nerve processes was performed. […] Nerve degeneration worsened as the transgenic worms aged (FIG. 23j).

[3] = system: V1S+SV2 and daf-16(mu86); V1S+SV2 animals; assay: Pharyngeal pumping analysis with GlcNAc treatment; conditions: 10 mM GlcNAc, both V1S+SV2 and daf-16(mu86)
Description: Pharyngeal pumping was counted for 1 min at RT using a fluorescence microscope. 25 worms from each strain were analyzed. The data were expressed as PPM (Pumps Per Minute). N-acetylglucosamine (GlcNAc) (Sigma) was dissolved in distilled water to prepare 1 M as stock solution. The stock solution was diluted with LB liquid medium. The L4-stage worms of each transgenic line were transferred to NGM plates containing a final concentration of 10 mM GlcNAc.

[4] = system: V1S+SV2 and daf-16(mu86); V1S+SV2 animals; assay: Life span assay with GlcNAc treatment; conditions: 10 mM GlcNAc, both V1S+SV2 and daf-16(mu86)
Description: Eggs laid by adult mother worms were synchronously grown up to the L4 larval stage on NGM plates seeded with E. coli OP50 at 20° C. The L4-stage worms were transferred to NGM plates containing 100 mM 5-fluoro-2′-deoxyuridine (Sigma) to prevent them from producing progeny. The number of worms that were alive or dead was recorded every 1-2 days.
(§1) N-acetylglucosamine (GlcNAc) (Sigma) was dissolved in distilled water to prepare 1 M as stock solution. The stock solution was diluted with LB liquid medium. The L4-stage worms of each transgenic line were transferred to NGM plates containing a final concentration of 10 mM GlcNAc.

α-synuclein aggregates = assay: Dot blot and western blot of α-synuclein aggregates in transgenic worms
Description: N-acetylglucosamine (GlcNAc) (Sigma) was dissolved in distilled water to prepare 1 M as stock solution. The stock solution was diluted with LB liquid medium. The L4-stage worms of each transgenic line were transferred to NGM plates containing a final concentration of 10 mM GlcNAc. Adult worms were washed with M9 buffer and subsequently with PBS containing 1% Triton X-100. The worm pellet was sonicated in PBS containing 1% Triton X-100, 1% (v/v) protease inhibitor cocktail (Sigma) and centrifuged to obtain the Triton-soluble (supernatant) and insoluble (pellet) fractions. Protein concentration was measured using the BCA protein assay kit (Pierce, Rockford, USA). Protein samples (3 μg for α-synuclein expression test and 50 μg to detect polyubiquitin proteins) were loaded onto 12% SDS-PAGE gels. The primary antibodies used for western blotting were monoclonal anti-α-synuclein antibody, 274 mAb and anti-ubiquitn antibody (ab7254; Abcam, Cambridge, Mass.). Chemiluminescence detection was performed using the LAS-3000 luminescence image analyzer, (Fujifilm, Tokyo, Japan), and Multi Gauge (y3.0) software. Adult worms of each strain were washed with M9 buffer and subsequently with PBS containing 1% Triton X-100. […] Chemiluminescence detection was performed using the LAS-3000 luminescence image analyzer and Multi Gauge (v3.0) software.

[5] = system: polyubiquitinated proteins; assay: Steady state levels of polyubiquitinated proteins (western blotting) in transgenic worms; conditions: transgenic animals treated with GlcNAc
Description: N-acetylglucosamine (GlcNAc) (Sigma) was dissolved in distilled water to prepare 1 M as stock solution. The stock solution was diluted with LB liquid medium. The L4-stage worms of each transgenic line were transferred to NGM plates containing a final concentration of 10 mM GlcNAc. Adult worms were washed with M9 buffer and subsequently with PBS containing 1% Triton X-100. The worm pellet was sonicated in PBS containing 1% Triton X-100, 1% (v/v) protease inhibitor cocktail (Sigma) and centrifuged to obtain the Triton-soluble (supernatant) and insoluble (pellet) fractions. Protein concentration was measured using the BCA protein assay kit (Pierce, Rockford, USA). Protein samples (3 μg for α-synuclein expression test and 50 μg to detect polyubiquitin proteins) were loaded onto 12% SDS-PAGE gels. The primary antibodies used for western blotting were monoclonal anti-α-synuclein antibody, 274 mAb and anti-ubiquitn antibody (ab7254; Abcam, Cambridge, Mass.). Chemiluminescence detection was performed using the LAS-3000 luminescence image analyzer, (Fujifilm, Tokyo, Japan), and Multi Gauge (y3.0) software.

[6] = system: lysosomal genes, sqst-1/p62; assay: Expression of lysosomal and autophagy genes (qPCR) upon GlcNAc treatment
Description: as §1
Adult transgenic worms derived from daf-16(mu86) mutants with or without hlh-30p::hlh-30 expression were collected, and washed in M9 buffer. The worms in the buffer were sonicated and the samples were subjected to several freeze-thaw cycles using liquid nitrogen. RNA was extracted with Trizol (Invitrogen, Carlsbad, Calif.) and purified using the RNeasy kit (Qiagen, Valencia, Calif., USA). Each cDNA was synthesized from 500 ng of total RNA using the iScript cDNA synthesis kit (Bio-Rad, Hercules, Calif.). For real-time PCR, target genes and specific primers were mixed with SYBR Premix Ex Taq II (Takara, Shiga, Japan) in 96-well plates. Specific primers previously designed by other group were used (Lapierre, L. R., et al. (2013). The TFEB orthologue HLH-30 regulates autophagy and modulates longevity in Caenorhabditis elegans. Nat. Commun 4, 2267). The DNA products were analyzed using the 7500 Real-Time PCR system (Applied Biosystems, Foster City, Calif.). […]

[7] = system: asp-4(ok2693); V1S+SV2 and asp-1(tm666); V1S+SV2 worms; assay: Epistasis analysis: GlcNAc treatment of cathepsin mutant BiFC worms; conditions: asp-1 and asp-4 mutant transgenic animals, in contrast to V1S+SV2 worms
Description: A plasmid expressing hlh-30p::hlh-30::gfp was obtained from Dr. Malene Hansen (Sanford-Burnham Medical Research Institute, CA, USA). The plasmid hlh-30p::hlh-30 was designed to introduce codon before the GFP coding sequence using a QuickChange Site-Directed Mutagenesis Kit to inhibit GFP expression. As a control, each Pmyo-2::V1S or Pflp 21::SV2-ICR-DsRed and hlh-30p::hlh-30 were co-injected into the gonads of late L4-stage N2 worm with pRF4. The plasmids expressing Pmyo-2::V1S, Pflp-21::SV2-ICR-DsRed and hlh-30p::hlh-30 were co-injected into the gonads of late L4-stage daf-16(mu86) mutant worms with pRF4. To analyze lysosomal dysfunction, asp-4(ok2693) and asp-1(tm666) mutant worms, in which the lysosomal enzyme cathepsin gene is inactivated, were used. Pmyo-2::V1S and Pflp-21::SV2-ICR-DsRed plasmids were co-injected into the gonads of late L4-stage mutant worms with pRF4. After transgenic lines containing the introduced plasmids were obtained, three representative lines of each genotype were used for experiments
as §1

[8] = system: single tissue expression lines carrying V1S or SV2 alone in N2 and daf-16(mu86) mutant worms; assay: GlcNAc treatment of single tissue expression lines (V1S or SV2 alone)
Description: Pmyo-2::V1S and Pflp-21::SV2-ICR-DsRed plasmids were co-injected into the gonads of late L4-stage daf-2(e1370) and daf-16(mu86) mutant worms with the pRF4. As a control for aging related BiFC models, Pmyo-2::V1S or Pflp-21::SV2::ICR::DsRed alone was injected into the gonads of late L4-stage of N2 and daf-16(mu86) mutant worms with pRF4. After several transgenic lines containing the introduced plasmids were obtained, three representative lines in each mutant background were used for experiments.
Worms were immobilized with 10 mM sodium azide in M9 buffer, mounted on 2% agar pads, and covered with a coverslip. Images of the worms were acquired using Olympus FV1000 confocal laser scanning microscopy (Olympus, Tokyo, Japan).
as §1
Adult worms of each strain were washed with M9 buffer and subsequently with PBS containing 1% Triton X-100. The worm pellet was sonicated in PBS containing 1% Triton X-100, 1% (v/v) protease inhibitor cocktail. Protein samples (500 ng) were loaded onto nitrocellulose membranes, which were then dried and incubated in blocking solution. The primary antibodies used for dot blotting were the monoclonal anti-α-synuclein antibodies 274 mAb and Syn-O2, the latter of which is specific for aggregated α-synuclein. Chemiluminescence detection was performed using the LAS-3000 luminescence image analyzer and Multi Gauge (v3.0) software.

Compound: CC(=O)N[C@H]1C(O)O[C@H](CO)[C@@H](O)[C@@H]1O (stereo partly drawn) [GlcNAc, N-acetylglucosamine]
- formation of BiFC-positive inclusion bodies ([1]; 10 mM GlcNAc from L4-stage, both V1S+SV2 and daf-16(mu86), V1S+SV2 animals): reduced
- transmission of α-synuclein aggregates ([1]; BiFC experimental animal model): inhibiting
- phenotypes for nerve degeneration [2]: significantly alleviated
- pumping behavior [3]: significantly alleviated
- pumping behavior ([3]; listed as N-acetylglucosamine): increased
- life span [4]: significantly alleviated
- life span ([4]; listed as N-acetylglucosamine): extended
- levels of high molecular weight (HM) α-synuclein aggregates (α-synuclein aggregates; Triton-insoluble (Tx-insol) fraction of transgenic worms, western blot): significantly decreased
- β-sheet-rich α-synuclein aggregates (α-synuclein aggregates; dot blot with Syn-02 antibody, transgenic worms): reduced
- levels of polyubiquitinated proteins [5]: decreased
- expression of lysosomal genes and autophagy gene sqst-1/p62 [6]: increased
- aging-related phenotypes [7]: not rescued
- pathogenic phenotypes (nerve degeneration, pumping behavior, life span) ([8]; V1S or SV2 alone in N2 and daf-16(mu86), versus untreated animals): did not exhibit significant changes
- expression levels of α-synuclein ([8]; dot blot, GlcNAc treatment): not changed
- neuronal expression of flp-21 promoter (Ds-Red) ([8]; with or without GlcNAc treatment): strictly confined in neuronal cells
